In patent US6395783B1, “Treatment of PCP addiction and PCP addiction-related behavior” (Brookhaven Science Associates, LLC, priority 2000, dated 2002):

Experiments:
[1] = system: extracellular DA concentrations in the prefrontal cortex (PFC); test: In vivo microdialysis of PCP-induced extracellular DA in the prefrontal cortex of freely moving rats; parameters: species or system rat (Sprague-Dawley); conditions: p<0.01
From the text: (§1) We explored the effects of increased endogenous GABA activity on PCP-induced extracellular DA concentrations in the prefrontal cortex (PFC) and nucleus accumbens (NAcc) of freely moving rats.
(§2) All animals were used under an IACUC-approved protocol and with strict adherence to the NIH guidelines. Adult male Sprague-Dawley rats (200-300 g, Taconic Farms), housed in the animals care facility under 12:12 light/dark conditions, were placed into 6 groups (n=3-6), anesthetized and siliconized guide cannulae were stereotactically implanted into the right NAcc (2.0 mm anterior and 1.0 mm lateral to bregms, and 7.0 mm ventral to the cortical surface) and prefrontal cortex (PFC) at least 4 days prior to study. Microdialysis probes (2.0 mm, Bioanalytical Systems, BAS, West Lafayette, Ind.) were positioned within the guide cannulae and artificial cerebrospinal fluid (ACSF, 155.0 mM […]) was administered through the probe using a CMA/100 microinfusion pump (BAS) at a flow rate of […].
Animals were placed in bowls, and probes were inserted and flushed with ACSF overnight. On the day of the study, a minimum of three samples were injected to determine baseline stability. Samples were collected for 20 min. and injected on-line (CMA/160, BAS). […]

[2] = system: synaptic dopamine (11C-raclopride binding); test: PET study with 11C-raclopride, GVG and PCP in primates; assay type: in vivo, Papio anubis baboons
[3] = system: extracellular DA concentrations in the nucleus accumbens (NAcc); test: In vivo microdialysis of PCP-induced extracellular DA in the nucleus accumbens of freely moving rats; parameters: species or system rat (Sprague-Dawley)
From the text: as §1, §2
Animals were placed in bowls, and probes were inserted and flushed with ACSF overnight. On the day of the study, a minimum of three samples were injected to determine baseline stability. Samples were collected for 20 min. and injected on-line (CMA/160, BAS). The average dopamine concentration of these three stable samples was defined as control (100%), and all subsequent treatment values were transformed to a percentage of that control. Upon establishing a stable baseline, the PCP was administered by intraperitoneal (i.p.) injection. The high performance liquid chromatography (HPLC) system consists of a BAS reverse-phase column (3.0μ C-18), a BAS LC-4C electrochemical transducer with a dual/glassy carbon electrode set at 650 mV, a computer that analyzes data on-line using a commercial software package (Chromograph Bioanalytical Systems), and a dual pen chart recorder. The mobile phase (flow rate 1.0 ml/min) consisted of 7.0% methanol, 50 mM sodium phosphate monobasic, 1.0 mM sodium octyl sulfate, and 0.1 mm […], pH 4.0. DA eluted at 7.5 min.
Gamma-vinyl GABA (GVG), an irreversible inhibitor of GABA-transaminase, was administered by intraperitoneal injection 2.5 hours prior to PCP (7 mg/kg). In all studies, animals were placed in the microdialysis bowls the night before the experiment and artificial cerebrospinal fluid (ACSF) was perfused through the microdialysis probes at a flow rate of 2.0 μl/min. At the end of each study, animals were sacrificed and their brains were removed and sectioned for probe placement verification.
Levels of extracellular DA were sampled from the NAcc continuously using a stereoaxically implanted probe. […]

SMILES | attenuation of PFC DA activity (response to PCP) ([1]; GVG pretreatment (300 mg/kg group) i.p. 2.5 hours prior to PCP (7 mg/kg)) | effect on PCP-induced increases in neostriatal synaptic DA assessed by PET ([2]; primate (baboon) brain) | effect on PCP-induced diminution of 11C-raclopride binding (increase in synaptic dopamine) ([2]; prior intravenous 300 mg/kg GVG, PCP 1 mg/kg, four baboons, all cases) | attenuation of the DA response to PCP in the NAcc ([3]; GVG 150 mg/kg i.p. 2.5 hours prior to PCP (7 mg/kg)) | attenuation of the DA response to PCP in the NAcc ([3]; GVG 300 mg/kg i.p. 2.5 hours prior to PCP (7 mg/kg), p<0.01) | attenuation of the DA response to PCP in the NAcc ([3]; GVG 500 mg/kg i.p. 2.5 hours prior to PCP (7 mg/kg), p<0.001) | increase of DA concentrations above baseline in the PFC ([1]; PCP alone, 7 mg/kg i.p., baseline = 100%) | increase of DA concentrations above baseline in the NAcc ([3]; PCP alone, 7 mg/kg i.p., baseline = 100%, p<0.01)
C=CC(N)CCC(=O)O (racemic) [GVG, 4-amino-5-hexanoic acid] | 67% | significantly attenuated | prevented the diminution of ^11C-ralcopride binding | no significant inhibition | 62% | 67% |  | 
c1ccc(C2(N3CCCCC3)CCCCC2)cc1 [PCP, Phencyclidine] |  |  |  |  |  |  | 407% | 117%
